The values that follow come from patent publication US9382254B2, “Compounds and pharmaceutical compositions thereof for the treatment of cystic fibrosis” (Galapagos NV, priority 2013, dated 2016).

A word on the EC50: it is the midpoint of the concentration-response curve.

Assay [1] addresses T1, CFTR ΔF508 mutant (Homo sapiens, UniProt P13569, DEL508-508).
T1 construct: expressed in transfected cells; host or cells: CFBE41o- (adenoviral transduction)
The assay can be described thus: YFP-halide influx assay for the CFTR-ΔF508 mutation, gluconate buffer. To be noted: CFBE41o- cells, forskolin 10.67 μM. Type of assay: cell-based. In a few lines:
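Channel opening is read as the fall in YFP fluorescence over 7 s following iodide injection, expressed as 1-F/F0 and plotted versus compound concentration to derive EC50. Cells used were CFBE41o- expressing adenoviral ΔF508 CFTR and halide-sensitive YFP, rescued by 24 h at 27 °C or 24 h modulator treatment at 37 °C.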

Assay [2] has as its target T1, CFTR ΔF508 mutant. The assay can be described thus: YFP-halide influx assay for the CFTR-ΔF508 mutation (384 well, FDSS/μCell). The assay is classed as cell-based. The note with it: CFBE41o- cells, CFTR-ΔF508, 1×D-PBS, fluorescence after 36 seconds. An outline of the steps:
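Potentiator read-out as 1−F/F0, F taken 36 s after iodide addition, EC50 fitted against compound concentration. Cells: CFBE41o- expressing ΔF508 CFTR plus halide-sensitive YFP via adenovirus, rescued by 27 °C for 24 h or 24 h modulator at 37 °C.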

T1 sequence (P13569 with tags, fused parts or gaps DEL508-508): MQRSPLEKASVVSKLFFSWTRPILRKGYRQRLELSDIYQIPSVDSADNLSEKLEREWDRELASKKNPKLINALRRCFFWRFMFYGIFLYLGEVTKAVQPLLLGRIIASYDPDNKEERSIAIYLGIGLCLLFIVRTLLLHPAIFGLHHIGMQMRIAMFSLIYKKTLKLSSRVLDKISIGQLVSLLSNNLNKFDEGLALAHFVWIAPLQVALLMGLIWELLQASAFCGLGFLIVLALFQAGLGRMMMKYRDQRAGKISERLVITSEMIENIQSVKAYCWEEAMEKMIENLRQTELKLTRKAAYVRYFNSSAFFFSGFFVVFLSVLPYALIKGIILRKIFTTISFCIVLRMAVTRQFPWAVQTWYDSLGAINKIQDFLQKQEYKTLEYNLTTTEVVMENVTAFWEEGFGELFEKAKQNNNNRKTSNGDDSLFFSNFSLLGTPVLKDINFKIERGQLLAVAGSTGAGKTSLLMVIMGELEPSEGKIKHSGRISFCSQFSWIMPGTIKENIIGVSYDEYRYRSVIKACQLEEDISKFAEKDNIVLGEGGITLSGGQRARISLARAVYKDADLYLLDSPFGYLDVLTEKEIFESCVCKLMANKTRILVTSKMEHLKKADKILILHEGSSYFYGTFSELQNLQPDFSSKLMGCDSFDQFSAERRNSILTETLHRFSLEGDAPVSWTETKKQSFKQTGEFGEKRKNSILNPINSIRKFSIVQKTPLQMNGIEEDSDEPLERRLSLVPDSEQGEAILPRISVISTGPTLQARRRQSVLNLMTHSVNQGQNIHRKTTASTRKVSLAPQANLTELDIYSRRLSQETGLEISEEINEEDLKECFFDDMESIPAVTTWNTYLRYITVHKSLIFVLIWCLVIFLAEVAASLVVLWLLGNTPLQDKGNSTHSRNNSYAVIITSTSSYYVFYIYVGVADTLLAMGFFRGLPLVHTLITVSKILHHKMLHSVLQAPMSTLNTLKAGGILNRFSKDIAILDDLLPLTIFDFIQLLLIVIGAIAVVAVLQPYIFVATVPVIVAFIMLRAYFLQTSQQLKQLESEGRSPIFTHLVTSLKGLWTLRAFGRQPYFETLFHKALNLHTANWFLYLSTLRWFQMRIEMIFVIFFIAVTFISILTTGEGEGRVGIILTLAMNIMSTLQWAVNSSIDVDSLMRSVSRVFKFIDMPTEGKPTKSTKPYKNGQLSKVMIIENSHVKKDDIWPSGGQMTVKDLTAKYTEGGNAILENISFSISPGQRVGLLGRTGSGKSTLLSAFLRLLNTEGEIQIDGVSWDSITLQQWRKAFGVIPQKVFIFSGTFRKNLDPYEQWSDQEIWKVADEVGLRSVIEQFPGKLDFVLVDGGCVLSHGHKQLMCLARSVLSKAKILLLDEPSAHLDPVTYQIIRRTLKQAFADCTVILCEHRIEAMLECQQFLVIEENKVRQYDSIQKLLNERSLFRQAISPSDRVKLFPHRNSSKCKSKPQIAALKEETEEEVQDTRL

For `CCN(C)S(=O)(=O)c1cc(C(N)=O)c(NC(=O)c2ccc(C)s2)s1` [Compound 3, N-(3-carbamoyl-5-(N-ethyl-N-methylsulfamoyl)thiophen-2-yl)-5-methylthiophene-2-carboxamide], the results for the EC50 on CFTR ΔF508 mutant [1] and at CFTR ΔF508 mutant [2] were 107 nM and 109 nM, respectively.
For `CCN(CC)S(=O)(=O)c1cc(C(N)=O)c(NC(=O)c2ccc(C)s2)s1` [Compound 4, N-(3-carbamoyl-5-(N,N-diethylsulfamoyl)thiophen-2-yl)-5-methylthiophene-2-carboxamide], the figures for the EC50 on CFTR ΔF508 mutant [1] and at CFTR ΔF508 mutant [2] were 94 nM and 135 nM, respectively.
For `Cc1ccc(C(=O)Nc2sc(S(=O)(=O)c3ccccc3)cc2C(N)=O)s1` [Compound 16, N-(3-carbamoyl-5-(phenylsulfonyl)thiophen-2-yl)-5-methylthiophene-2-carboxamide], in that order: 99.7 nM and 187 nM.
In the same order, the values of `NC(=O)c1cc(S(=O)(=O)N2CCCCC2)sc1NC(=O)c1ccn[nH]1` [Compound 36, N-(3-carbamoyl-5-(piperidin-1-ylsulfonyl)thiophen-2-yl)-1H-pyrazole-3-carboxamide] are 92.3 nM and 13.1 nM.
For `Cc1c(S(=O)(=O)c2ccccc2)sc(NC(=O)c2ccccc2F)c1C(N)=O` [Compound 87, 2-(2-fluorobenzamido)-4-methyl-5-(phenylsulfonyl) thiophene-3-carboxamide], the EC50 at CFTR ΔF508 mutant [1] came out at 44.1 nM; at CFTR ΔF508 mutant [2] it was 84.3 nM.
For `CCc1cc(C(=O)Nc2sc(S(=O)(=O)c3ccccc3)cc2C(N)=O)n[nH]1` [Compound 95, N-(3-carbamoyl-5-(phenylsulfonyl)thiophen-2-yl)-5-ethyl-1H-pyrazole-3-carboxamide], in that order: 99.4 nM and 101 nM.
For `Cc1c(S(=O)(=O)c2ccccc2)sc(NC(=O)c2cc[nH]n2)c1C(N)=O` [Compound 101, N-(3-carbamoyl-4-methyl-5-(phenylsulfonyl)thiophen-2-yl)-1H-pyrazole-3-carboxamide], in that order: 20.5 nM and 26.8 nM.
`CCc1cc(C(=O)Nc2sc(S(=O)(=O)c3ccccc3)c(C)c2C(N)=O)n[nH]1` [Compound 103, N-(3-carbamoyl-4-methyl-5-(phenylsulfonyl)thiophen-2-yl)-5-ethyl-1H-pyrazole-3-carboxamide]: the EC50 at CFTR ΔF508 mutant [1] is 38.4 nM; on CFTR ΔF508 mutant [2], 54.6 nM.
For `NC(=O)c1cc(S(=O)(=O)c2ccc(F)cc2)sc1NC(=O)c1ccn[nH]1` [Compound 109, N-(3-carbamoyl-5-(4-fluorophenylsulfonyl)thiophen-2-yl)-1H-pyrazole-3-carboxamide], in that order: 28.6 nM and 28.9 nM.
Take `NC(=O)c1cc(S(=O)(=O)c2ccc(F)cc2)sc1NC(=O)c1ccccc1F` [Compound 111, 2-(2-fluorobenzamido)-5-(4-fluorophenylsulfonyl) thiophene-3-carboxamide]: the EC50 at CFTR ΔF508 mutant [1] turned out to be 84.3 nM; at CFTR ΔF508 mutant [2], 199 nM.
In the same order, the values of `NC(=O)c1cc(S(=O)(=O)c2cccc(F)c2)sc1NC(=O)c1cc[nH]n1` [Compound 113, N-(3-carbamoyl-5-(3-fluorophenylsulfonyl)thiophen-2-yl)-1H-pyrazole-3-carboxamide] are 29.2 nM and 5.8 nM.
In the same order, the values of `CCc1cc(C(=O)Nc2sc(S(=O)(=O)c3cccc(F)c3)cc2C(N)=O)n[nH]1` [Compound 114, N-(3-carbamoyl-5-(3-fluorophenylsulfonyl)thiophen-2-yl)-5-ethyl-1H-pyrazole-3-carboxamide] are 90.7 nM and 102 nM.
Take `CCc1cc(C(=O)Nc2sc(S(=O)(=O)c3ccccc3F)cc2C(N)=O)n[nH]1` [Compound 116, N-(3-carbamoyl-5-(2-fluorophenylsulfonyl)thiophen-2-yl)-5-ethyl-1H-pyrazole-3-carboxamide]: the figures for the EC50 on CFTR ΔF508 mutant [1] and on CFTR ΔF508 mutant [2] were 59.7 nM and 63.5 nM, respectively.
Consider `NC(=O)c1cc(S(=O)(=O)c2ccc(F)c(F)c2)sc1NC(=O)c1cc[nH]n1` [Compound 118, N-(3-carbamoyl-5-(3,4-difluorophenylsulfonyl)thiophen-2-yl)-1H-pyrazole-3-carboxamide], for which the EC50 is 36 nM at CFTR ΔF508 mutant [1] and 9.6 nM at CFTR ΔF508 mutant [2].
Consider `CCc1cc(C(=O)Nc2sc(S(=O)(=O)c3ccc(F)c(F)c3)cc2C(N)=O)n[nH]1` [Compound 119, N-(3-carbamoyl-5-(3,4-difluorophenylsulfonyl)thiophen-2-yl)-5-ethyl-1H-pyrazole-3-carboxamide], for which the 50% effective concentration (EC50) at CFTR ΔF508 mutant [1] came out at 78.3 nM; on CFTR ΔF508 mutant [2], 187 nM.
In the same order, the values of `CCc1ccccc1S(=O)(=O)c1cc(C(N)=O)c(NC(=O)c2ccccc2F)s1` [Compound 121, 5-(2-ethylphenylsulfonyl)-2-(2-fluorobenzamido) thiophene-3-carboxamide] are 74.9 nM and 292 nM.
For `COC1CCN(S(=O)(=O)c2cc(C(N)=O)c(NC(=O)c3ccccc3F)s2)CC1` [Compound 123, 2-(2-fluorobenzamido)-5-(4-methoxypiperidin-1-ylsulfonyl)thiophene-3-carboxamide], the EC50 turned out to be 76.9 nM on CFTR ΔF508 mutant [1] and 76.4 nM on CFTR ΔF508 mutant [2].
In the same order, the values of `NC(=O)c1cc(S(=O)(=O)N2CCC(F)(F)CC2)sc1NC(=O)C1(O)CC1` [Compound 139, 5-(4,4-difluoropiperidin-1-ylsulfonyl)-2-(1-hydroxycyclopropanecarboxamido) thiophene-3-carboxamide] are 114 nM and 55.5 nM.
In the same order, the values of `CN(C1CC1)S(=O)(=O)c1cc(C(N)=O)c(NC(=O)c2ccccc2F)s1` [Compound 152, 5-(N-cyclopropyl-N-methylsulfamoyl)-2-(2-fluorobenzamido)thiophene-3-carboxamide] are 82.1 nM and 135 nM.
In the case of `CC(C)N(C)S(=O)(=O)c1cc(C(N)=O)c(NC(=O)c2ccccc2F)s1` [Compound 153, 2-(2-fluorobenzamido)-5-(N-isopropyl-N-methylsulfamoyl) thiophene-3-carboxamide], the EC50 on CFTR ΔF508 mutant [1] and on CFTR ΔF508 mutant [2] was 46 nM in each case.
For `CC(C)N(C(C)C)S(=O)(=O)c1cc(C(N)=O)c(NC(=O)c2ccccc2F)s1` [Compound 154, 5-(N,N-diisopropylsulfamoyl)-2-(2-fluorobenzamido) thiophene-3-carboxamide], the results for the EC50 at CFTR ΔF508 mutant [1] and at CFTR ΔF508 mutant [2] were 105 nM and 427 nM, respectively.
With `Cc1ccc(CN(C)S(=O)(=O)c2cc(C(N)=O)c(NC(=O)c3cc[nH]n3)s2)cc1` [Compound 170, N-(3-carbamoyl-5-(N-methyl-N-(4-methylbenzyl)sulfamoyl)thiophen-2-yl)-1H-pyrazole-3-carboxamide], the EC50 at CFTR ΔF508 mutant [1] came out at 38 nM; at CFTR ΔF508 mutant [2] it was 184 nM.
With `CN(c1ccc(F)cc1)S(=O)(=O)c1cc(C(N)=O)c(NC(=O)c2cc[nH]n2)s1` [Compound 173, 1H-Pyrazole-3-carboxylic acid {3-carbamoyl-5-[(4-fluoro-phenyl)-methyl-sulfamoyl]-thiophen-2-yl}-amide], the EC50 was 21 nM on CFTR ΔF508 mutant [1] and 15.8 nM on CFTR ΔF508 mutant [2].
For `COc1ccc(OC)c(S(=O)(=O)c2cc(C(N)=O)c(NC(=O)c3ccccc3F)s2)c1` [Compound 182, 5-(2,5-dimethoxyphenylsulfonyl)-2-(2-fluorobenzamido)thiophene-3-carboxamide], in that order: 97.9 nM and 433 nM.
